Values joined by “and” are separate entries in the source; they are usually repeats but may differ in a detail not shown here. Identical values can stand only once.
Assays:
IL-8 = assay: Ex vivo LPS-stimulated IL-8 in blood of dosed healthy subjects, PK/PD inhibitory Emax model; set-up: species or system human
Protocol: (§1) Blood samples of 10 mL were collected for PD analysis. For the SAD cohorts, blood was collected before dosing and 1, 12, and 24 hours after dosing. For the MAD cohorts, on day 1 blood was collected before the morning dose and 4 and 12 hours after the morning dose (prior to the evening dose); on day 7, blood was collected before the morning dose and 4 and 12 hours after the morning dose.
(§2) Additional details of the assays for analyzing p-HSP27 and cytokines are included in the Supplementary Information.
(§3) Pharmacodynamics. PD data analysis was conducted using Microsoft Excel 2010 (Microsoft, Redmond, WA), Meso Scale Discovery Workbench® analysis software (Rockville, MD), and Phoenix WinNonlin, version 8.2.
(§4) Sample Preparation for Cytokine Analysis. For each sample, 180 μL aliquots were transferred into 7 wells of a round bottom 96 well tissue culture polystyrene low evaporation plate. […] No outer wells on the plates were used and all wells surrounding the samples contained 200 μL of phosphate buffered saline.
(§5) DMSO was added to all wells in groups ‘A’ and ‘C’ to a final concentration of 0.1% ([…] of a 2% DMSO solution in DMEM containing 10% FBS and 1% penicillin/streptomycin/glutamine). […] Samples were mixed gently for 30 seconds on a plate shaker using pin tools, then placed in an incubator at 37° C./5% CO2 for 1 hour.
(§6) Samples in groups ‘A’ and ‘B’ were stimulated with lipopolysaccharide at a final concentration of 100 ng/mL. A stock solution of lipopolysaccharide at 1 mg/mL in DMEM containing 10% FBS and 1% penicillin/streptomycin was diluted to […] in DMEM containing 10% FBS and 1% penicillin/streptomycin, and […] of this working solution was added per well of blood for all samples in groups ‘A’ and ‘B’. […] of DMEM containing 10% FBS only was added per well of blood for all samples in group ‘C’ (unstimulated samples). Samples were mixed gently for 30 seconds on a plate shaker using pin tools, then placed in an incubator at 37° C./5% CO2 for 5 hours.
(§7) Following the incubation, the plates were removed from the incubator and sealed with adhesive clear plate seals. The plates were then centrifuged for 10 minutes at 1800×g at room temperature. […] of plasma was removed from each well and transferred to a 96-well polypropylene round bottom master plate, which was then sealed and frozen at −80° C. until all samples from the respective cohort were generated. Once all samples from a given cohort were generated, the samples were analyzed for cytokine (TNF-α, IL-1b, IL-6, and IL-8) production using Meso Scale Discovery Technology.
(§8) Analysis of Cytokine Levels Using Meso Scale Discovery Technology. All lipopolysaccharide plasma samples were analyzed for cytokine production with a V-Plex Human Proinflammatory Panel II (4-Plex) Kit from Meso Scale Discovery (Rockville, MD). The master plates containing the plasma samples were thawed on ice, and a daughter plate consisting of a 25-fold dilution of each plasma sample (3 μL of plasma plus 72 μL of Meso Scale Discovery Diluent 2) was generated for each master plate. The diluted plasma samples from the daughter plates were used in the cytokine analysis. The Meso Scale Discovery 4-plex plates were washed 3 times with 150 μL/well of wash buffer (1×KPL phosphate buffered saline with Tween 20 from SeraCare [Milford, MA]). Prepared calibrators and the samples from the daughter plates were added to the washed Meso Scale Discovery 4-plex plates at 50 μL/well. The 4-plex plates were sealed and shaken overnight at 4° C.
(§9) After the overnight incubation, the samples were removed by decanting. The 4-plex plates were then washed 3 times with 150 μL/well of wash buffer. […]

[1] = in vivo; cited from earlier work
IL-6 [2] = assay: Rat whole blood LPS stimulated IL-6; type: cell-based; conditions: 100 ng/mL, 4 hr
IL-1β [3] = assay: LPS stimulated IL-1β production in human whole blood; type: cell-based
Protocol: Compounds were serially diluted in 100% DMSO (Sigma-Aldrich, D2650) followed by a 50× dilution into DMEM/10% FBS (Gibco, 11965/26140). Vehicle consisted of DMSO at a final assay concentration of 0.1%. Pin tools (V&P Scientific, Inc., VP246) were placed in the wells and the plate was placed at 37° C. with 5% CO2, with gently shaking for five minutes, then pin tools were removed and saved. […] Pin tools were placed in the wells in the same orientation as the previous step and gently shook for five minutes at 37° C. with 5% CO2, then removed. […] The plasma was harvested and assayed for TNF-α, IL-1β, and IL-6 using Meso Scale Discovery Technology V-plex human cytokine kits according to the kit protocol. The kit plates were read using an MSD Sector S 6000 instrument. Calculations to establish cytokine calibration curves and to determine analyte concentrations in the samples were carried out using the MSD DISCOVERY WORKBENCH® analysis software.

IL-6 [4] = assay: A549 IL-1β stimulated IL-6 assay; type: cell-based; conditions: Homo sapiens, A549 cells, 1 ng/mL, 18 hr
Protocol: A549 IL-1β stimulated IL-6 Assay—A549 cells (American Type Culture Collection, […]) were grown in Ham's F-12K (Kaighn's) (Gibco, 21127-022) with penicillin-streptomycin (10 U/mL) (Gibco, 15140-122) and 10% fetal bovine serum (Gibco, 26140-079). Cells were grown to 80% confluence then trypsinized to remove cells. Cells were plated in 96 well flat bottom plates in complete media and allowed to recover overnight. Cells were pretreated for one hour in the presence of serially diluted compound or vehicle (0.5% DMSO) (Sigma-Aldrich, D2650) then stimulated with IL-1β (1 ng/mL) (R&D Systems, 201-LB-005) for 18 hours. Culture media was then collected for determination of IL-6 levels using Meso Scale Technology.

IL-6 [5] = assay: Poly(I:C) stimulated IL-6 production in human whole blood; type: cell-based; conditions: 100 ug/mL, 24 hr
Protocol: Human whole blood assays were performed as described above with the exceptions listed below. […] Compounds were serially diluted in 100% DMSO (Sigma-Aldrich, D2650) followed by a 25× dilution into DMEM/10% FBS (Gibco, 11965/26140). After the one-hour incubation with the compounds or vehicle, 20 μL of poly(I:C) (InvivoGen, HMW, tlrl-pic), in DPBS (Gibco, 14190-136) was added for a final concentration of 100 μg/mL to each well except for the no stimulus wells. After twenty-four hours of incubation with poly(I:C), plasma was harvested and assayed for IP10, IFNγ, IL-6, IL-8 and TNF-α using Meso Scale Discovery Technology V-plex human cytokine kits according to the kit protocol.

IL-1β [6] = assay: Ex vivo LPS-stimulated IL-1β in blood of dosed healthy subjects, PK/PD inhibitory Emax model; set-up: species or system human
Protocol: as §1, §2, §3, §4, §5, §6, §7, §8, §9

[7] = Homo sapiens, calculated from IC50, combined SAD and MAD data, read-out: IC80, plasma concentration at 80% of maximal inhibition
[8] = Homo sapiens, inhibitory Emax model, combined SAD and MAD data, read-out: IC50, plasma concentration at half maximal inhibition
[9] = calculated from IC50, combined SAD and MAD data

## Cc1cnc(-c2ccnc(C(C)(C)O)n2)cc1-n1c(C)cc(OCc2ncc(F)cc2F)c(Cl)c1=O (single isomer, unassigned) [ATI-450, 3-chloro-4-((3,5-difluoropyridin-2-yl)methoxy)-2′-(2-(2-hydroxypropan-2-yl)pyrimidin-4-yl)-5′,6-dimethyl-2H-[1,4′-bipyridin]-2-one]
IL-8; 50 mg BID, day 7
  Cmax (Multiple of IC80): 5.6x
  Ctrough (Multiple of IC80): 2.3x
IL-8; [7]
  IC80: 0.0388 µg/mL
IL-8; [8]
  IC50: 9.7 ng/mL
IL-8; [9]
  IC80, plasma concentration at 80% of maximal inhibition: 38.8 ng/mL
IL-8; inhibitory Emax model
  Imax, maximum percent inhibition: 57% and 57.1%
[1]
  effect in rat streptococcal cell wall arthritis model: joint protective effects and preserved bone mineral density
IL-6 [2]
  IC50: 28.3 ± 1.2 nM
IL-1β [3]; Human Whole Blood, LPS, 100 ng/mL, 4 or 24 hr, read-out: IC50, IL-1β
  IC50: 6.1 nM
IL-1β [3]; human whole blood, LPS 100 ng/mL, read-out: IC50, LPS-stimulated IL-1β
  IC50: 10 to 100 nM
IL-6 [4]
  IC50: 11.1 ± 7.6 nM
IL-6 [5]
  IC50: 13.2 ± 12.8 nM
IL-1β [6]; 50 mg BID MAD cohort
  IL-1β inhibition versus baseline: ≤ 83.0%
IL-1β [6]; 50 mg BID, day 7
  Cmax (Multiple of IC80): 5.4x
  Ctrough (Multiple of IC80): 2.2x
IL-1β [6]; [7]
  IC80: 0.0408 µg/mL
IL-1β [6]; [8]
  IC50: 0.0102 µg/mL
IL-1β [6]; [9]
  IC80, plasma concentration at 80% of maximal inhibition: 40.8 ng/mL
IL-1β [6]; inhibitory Emax model
  Imax, maximum percent inhibition: 74% and 74.3%
